# Results published in PubChem BioAssay (NCI).
#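 A five-concentration, 48-hour dose response in 96-well plates underlies each endpoint, interpolated linearly between surrounding concentrations. GI50 is the concentration that inhibits growth by half. TGI marks complete inhibition of growth.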
# Experiments:
# Assay in all cases: NCI anticancer screen, dose series, 48 h
# HT29 colon = tested on: HT29 colon
# M14 melanoma = tested on: M14 melanoma
# K-562 leukemia = tested on: K-562 leukemia
# NCI-H226 lung = tested on: NCI-H226 lung
# RXF 393 renal = tested on: RXF 393 renal
# HCC-2998 colon = tested on: HCC-2998 colon
# SN12C renal = tested on: SN12C renal
# PC-3 prostate = tested on: PC-3 prostate
# UACC-257 melanoma = tested on: UACC-257 melanoma
# SK-MEL-5 melanoma = tested on: SK-MEL-5 melanoma
Compound,TGI (HT29 colon) [µM],TGI (M14 melanoma) [µM],TGI (K-562 leukemia) [µM],TGI (NCI-H226 lung) [µM],TGI (RXF 393 renal) [µM],TGI (HCC-2998 colon) [µM],TGI (SN12C renal) [µM],TGI (PC-3 prostate) [µM],TGI (UACC-257 melanoma) [µM],TGI (SK-MEL-5 melanoma) [µM],GI50 (HT29 colon) [µM],GI50 (M14 melanoma) [µM],GI50 (K-562 leukemia) [µM],GI50 (NCI-H226 lung) [µM],GI50 (RXF 393 renal) [µM],GI50 (HCC-2998 colon) [µM],GI50 (SN12C renal) [µM],GI50 (PC-3 prostate) [µM],GI50 (UACC-257 melanoma) [µM],GI50 (SK-MEL-5 melanoma) [µM]
CC(=O)CC1(CBr)Nc2ccc([N+](=O)[O-])cc2NC1=O (stereo not given),> 100,> 100,> 100,> 100,> 100,> 100,> 100,> 100,> 100,> 100,,,,,,,,,,
Cn1/c(=N\N=C2\C=C3CCCCC3(C)CC2)sc2ccccc21 (stereo not given),> 100,> 100,> 100,> 100,> 100,> 100,> 100,> 100,> 100,> 100,,,,,,,,,,
O=CCCCCCOCc1ccccc1,> 100,> 100,> 31.7,> 100,> 100,> 100,32.6,> 100,> 100,> 54.4,,,,,,,,,,
Clc1ccc2c(c1)N(CCCN1CCCC13CCCCC3)c1ccccc1S2,15.7,27.3,21.6,> 86.5,17.6,8.64,26.8,20.6,24.4,> 56,,,,,,,,,,
CN(CCCCCl)P(=O)(OCc1ccc([N+](=O)[O-])o1)OCC1OC(n2ccc(N)nc2=O)C(O)C1O (stereo not given),41.4,> 100,> 100,> 100,60.2,12.6,33.7,43,30.2,1.15,,,,,,,,,,
O=S(=O)(Nc1nc2ccccc2nc1N1CCCCCC1)c1ccccc1,> 100,49.9,> 100,> 100,57.5,31.9,> 100,77.4,99.2,29.5,,,,,,,,,,
CCOC(=O)NC(=S)N(CC(=O)c1cc(OC)c(OC)c(OC)c1)c1ccc(Cl)cc1,> 100,> 100,> 100,> 100,89.7,> 100,> 100,> 100,> 100,> 100,> 100,36.7,51.8,> 100,17.2,33.4,> 100,72.2,25.1,43
C[n+]1cccc2ccc3cccnc3c21,> 100,> 100,> 100,70,> 100,> 100,> 100,> 100,> 100,42,,,,,,,,,,
NC(=O)[C@H](Cc1ccc(O)cc1)Nc1c(O)c2c(c(O)c1Cl)C(=O)C=CC2=O,6.2,> 7,5.37,> 10,9.56,> 3.16,> 6.94,5.85,> 10,3.04,,,,,,,,,,
COc1ccc(CCNC(=O)Cc2ccccc2CO)cc1OC,> 100,> 100,> 100,> 100,> 100,> 100,> 100,> 100,> 100,> 100,,,,,,,,,,
CC(C)(CO[C@H]1C[C@H]2CC[C@@]1(C)C2(C)C)[N+](=O)[O-],30.6,27.1,35,36.1,26.1,5.19,> 100,54.4,36.9,31.6,,,,,,,,,,
Cc1c(C)c2c(c(N)c1C#N)C(=O)N(N)C2=O,> 100,> 100,> 100,> 100,> 100,> 100,> 100,> 100,> 100,> 100,,,,,,,,,,
Cn1c(=O)c2c(nc3[nH]c(=O)c(Br)cn32)n(C)c1=O,> 100,> 100,> 100,> 100,> 100,> 100,> 100,> 100,> 100,> 100,,,,,,,,,,
O=C1[C@@H]2[C@@H](CN3CN(c4ccccc4)N=C(c4ccccc4)[C@@]23c2ccccc2)C(=O)N1c1ccccc1,6.22,9.73,> 25.4,8.87,9.65,> 100,18.4,27.1,29.1,32.6,,,,,,,,,,
CCc1nc(N)c2nc(-c3cccs3)oc2n1,> 100,> 100,> 100,> 100,> 100,> 100,> 100,> 100,> 100,> 100,,,,,,,,,,
COc1cc2c(cc1OC)C(=O)N(c1ccc(OCCN3CCCC3)cc1)C2,> 100,> 100,> 100,> 100,> 100,> 100,> 100,> 100,> 100,> 100,,,,,,,,,,
